{
  "source": "ChEMBL document CHEMBL5154690",
  "about": "“Discovery of a tricyclic farnesoid X receptor agonist HEC96719, a clinical candidate for treatment of non-alcoholic steatohepatitis” (Eur J Med Chem, 2022)",
  "key": {"[1]": {"test": "Ratio of drug level in pancreas to plasma in male Sprague-Dawley rat at 4.5 mg/kg, po administered as C14-lableled compound and measured at 0.25 to 6 hrs", "assay_type": "ADME, organism-based", "conditions": "other tissue, time 0.25-6 hrs"}, "[2]": {"test": "Drug recovery in skin of male Sprague-Dawley rat at 4.5 mg/kg, po administered as C14-lableled compound and assessed as radioactivity and measured at 0.25 hrs", "assay_type": "ADME, organism-based, Skin of body", "conditions": "in vivo"}, "[3]": {"test": "Drug metabolism in plasma of Sprague-Dawley rat assessed as production of toxic metabolites at 4.5 mg/kg, po administered as C14-lableled compound with single dose", "assay_type": "ADME, organism-based", "conditions": "in vivo"}, "[4]": {"test": "Drug recovery in brain of male Sprague-Dawley rat at 4.5 mg/kg, po administered as C14-lableled compound and assessed as radioactivity and measured at 0.25 hrs", "assay_type": "ADME, organism-based", "conditions": "in vivo, BLD = below limit of detection"}, "[5]": {"test": "Drug recovery in plasma of male Sprague-Dawley rat at 4.5 mg/kg, po administered as C14-lableled compound and assessed as radioactivity and measured at 0.25 hrs", "assay_type": "ADME, organism-based", "conditions": "in vivo"}, "[6]": {"target": "T1, Peroxisome proliferator-activated receptor alpha (Homo sapiens, UniProt Q07869)", "T1 sequence (Q07869 whole entry)": "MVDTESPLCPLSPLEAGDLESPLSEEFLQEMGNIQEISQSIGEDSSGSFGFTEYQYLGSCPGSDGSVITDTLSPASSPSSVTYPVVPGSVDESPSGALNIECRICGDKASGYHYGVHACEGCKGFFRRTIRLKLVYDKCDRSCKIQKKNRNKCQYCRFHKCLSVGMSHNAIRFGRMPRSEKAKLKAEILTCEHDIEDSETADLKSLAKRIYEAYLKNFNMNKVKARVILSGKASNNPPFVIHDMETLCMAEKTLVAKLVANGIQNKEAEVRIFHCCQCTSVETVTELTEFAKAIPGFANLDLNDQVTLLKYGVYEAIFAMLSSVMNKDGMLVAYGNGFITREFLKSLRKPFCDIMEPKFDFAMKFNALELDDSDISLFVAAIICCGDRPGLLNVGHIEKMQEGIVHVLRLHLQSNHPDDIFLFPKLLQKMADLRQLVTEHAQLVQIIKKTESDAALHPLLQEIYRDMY", "test": "Agonist activity at PPARalpha (unknown origin)"}, "[7]": {"test": "Mutagenecity in Salmonella typhimurium TA102 measured by Ames test", "assay_type": "toxicity", "conditions": "salmonella enterica subsp. enterica serovar typhimurium"}, "[8]": {"test": "Drug recovery in pancreas of male Sprague-Dawley rat at 4.5 mg/kg, po administered as C14-lableled compound and assessed as radioactivity and measured at 0.25 hrs", "assay_type": "ADME, organism-based", "conditions": "in vivo"}, "[9]": {"test": "AUC (0 to t) in male Sprague-Dawley rat at 1 mg/kg, iv measured by LC-MS/MS analysis", "assay_type": "ADME, organism-based", "parameters": "dose 1 mg/kg, route iv", "conditions": "in vivo"}, "[10]": {"test": "Drug recovery in kidney of male Sprague-Dawley rat at 4.5 mg/kg, po administered as C14-lableled compound and assessed as radioactivity and measured at 1 hr", "assay_type": "ADME, organism-based", "conditions": "in vivo"}, "[11]": {"test": "Cmax in male Sprague-Dawley rat at 5 mg/kg, po measured by LC-MS/MS analysis", "assay_type": "ADME, organism-based", "parameters": "dose 5 mg/kg, route po", "conditions": "in vivo"}},
  "data": [
    {"smiles": "O=C(O)c1ccc2c(c1)Oc1ccc(OCc3c(-c4c(Cl)cccc4Cl)noc3C3CC3)nc1C1(CC1)C2", "values": [
      {"measurement": "Ratio", "setting": "[1]", "value": 0.8},
      {"measurement": "Drug recovery", "setting": "[2]", "value": 33.3, "unit": "ngequiv/g"},
      {"measurement": "Drug metabolism", "setting": "[3]", "value": "Metabolite_Notdetected"},
      {"measurement": "Drug recovery", "setting": "[4]", "value": "Bld"},
      {"measurement": "Drug recovery", "setting": "[5]", "value": 229, "unit": "ngequiv/g"},
      {"measurement": "EC50", "setting": "[6]", "value": "> 10", "unit": "µM"},
      {"measurement": "Activity", "setting": "[7]", "value": "Non-Toxic"},
      {"measurement": "Drug recovery", "setting": "[8]", "value": 177, "unit": "ngequiv/g"},
      {"measurement": "AUC(0-t)", "setting": "[9]", "value": 473, "unit": "ng·h/mL"},
      {"measurement": "Drug recovery", "setting": "[10]", "value": 457, "unit": "ngequiv/g"},
      {"measurement": "Cmax", "setting": "[11]", "value": 1090, "unit": "ng/mL"}
    ]}
  ]
}
